Measurements: US11952365B2, “Anti-viral compounds” (Aligos Therapeutics, Inc., priority 2020, dated 2024)
Like-named read-outs stand apart in the source and are kept apart here.

Tests used:
in vitro [1] = details: African green monkey, VeroE6 + CP (CC50)
[2] = system: human beta-coronavirus OC43; assay: microbe, parasite or virus in culture; type: cell-based; details: OC43 in HeLa cells, 6 days at 33° C., read-out: EC50
[3] = system: SARS-CoV-2-GHB-03021/2020; assay: SARS-CoV-2 Infection Model in Huh7 Cells; type: cell-based; details: Severe acute respiratory syndrome coronavirus 2, Huh-7, 96 h, SARS-CoV-2, day 4 p.i., MTS
HRV3C = HRV3C (Human rhinovirus 14, UniProt P03303); assay: HRV3C protease assay (duplex, SAMDI-MS); type: biochemical, HRV; details: 30 mins preincubation
How it was run: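 Readout is SAMDI mass spectrometry: biotinylated substrates, products and internal standards were immobilized on neutravidin monolayers and product formation taken as the AUC ratio to internal standard. Reactions ran 30 min at ambient temperature after 30 min compound preincubation, in duplex with 3CLpro. IC50 values came from four-parameter curve fitting.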

human cathepsin L = molecular target: T1, human cathepsin L (Homo sapiens, UniProt P07711); assay: cathepsin L assay; type: biochemical; details: 10 pM human cathepsin L, Z-FR-AMC 2 μM, class symbols
T1 construct: purchased R&D Systems
How it was run: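 Reactions began by adding 2 μM (final) Z-FR-AMC substrate to 10 pM human cathepsin L that had been preincubated 30 min with inhibitor. Kinetic AMC fluorescence at 355/460 nm over 30 min at 2-min intervals; four-parameter fitting gave IC50 values.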

[4] = Cytotoxicity plates without OC43 virus (cell-titer-glo); type: cell-based, human; details: human; HeLa cells without OC43 virus, class symbols
How it was run: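 Run as a virus-free counterpart of the OC43 cytopathic-effect assay. Attached HeLa cells received compound dilutions in EMEM with 2% FBS and were kept 6 days at 33 °C. Cell viability was then measured by CellTiter-Glo luminescence.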

3CLpro = 3CLpro (Severe acute respiratory syndrome coronavirus 2, UniProt P0DTD1); assay: SARS-CoV-2 3CLpro protease assay (duplex, SAMDI-MS); type: biochemical; parameters: For the duplex assay, 3CLpro and HRV3C was added; details: 30 mins preincubation, class symbols
[5] = system: SARS-CoV-2-GHB-03021/2020; assay: microbe, parasite or virus in culture; type: cell-based
in vitro [6] = details: human
[7] = Vero E6-eGFP cells with CP-100356, absence of virus, MTS, class symbols
[8] = Betacoronavirus 1, OC43, HeLa, 144 h, class symbols
[9] = HRV3C, class symbols, read-out: HRV IC50
[10] = 3CLpro, read-out: SARS-Cov-2 IC50
[11] = Severe acute respiratory syndrome coronavirus 2, Vero C1008, 96 h; read-out: VeroE6 + CP (EC50)
[12] = Vero E6-eGFP cells with CP-100356, absence of virus, MTS, numeric bounds
[13] = HRV3C, bound, read-out: HRV IC50

Row | SMILES | CC50 (in vitro [1]; [7]) [µM] | EC50 [2, 8] [µM] | EC50 ([3]; class symbols) [µM] | IC50 (HRV3C; [9]) [µM] | IC50 (human cathepsin L) [µM] | CC50 at 6 days [4] [µM] | IC50 (3CLpro; [10]) [µM] | EC50 [5, 11] [µM] | CC50 (in vitro [6]) [µM] | CC50 (in vitro [1]; [12]) [µM] | IC50 (HRV3C; HRV IC50, HRV3C, class symbols) [µM] | IC50 (HRV3C; [13]) [µM] | EC50 ([3]; numeric bounds) [µM] | EC50 ([2]; class symbols) [µM] | CC50 (in vitro [1]) [µM] | EC50 ([2]; Betacoronavirus 1, OC43, HeLa, 144 h, bound) [µM] | IC50 (3CLpro; SARS-Cov-2 IC50, 3CLpro) [µM] | EC50 ([5]; Severe acute respiratory syndrome coronavirus 2, Vero C1008, 96 h, read-out: VeroE6 + CP (EC50)) [µM]
1 | COc1cccc2[nH]c(C(=O)N3C[C@@H]4CCC[C@@H]4[C@H]3C(=O)N[C@@H](CC3CC(C)(C)NC3=O)C(=O)COCc3ccccc3)cc12 (relative stereo) [Compound 70A_1, (1S,3aR,6aS)—N-[(2S)-4-(benzyloxy)-1-[(3R*)-5,5-dimethyl-2-oxopyrrolidin-3-yl]-3-oxobutan-2-yl]-2-(4-methoxy-1H-indole-2-carbonyl)-hexahydro-1H-cyclopenta[c]pyrrole-1-carboxamide] | > 10 | < 0.1 | 1 to 10 | 2 to 20 | ≥ 10 | > 10 | 0.02 to 0.2 | 1 to 10 | > 10 | – | – | – | – | – | – | – | – | –
2 | COc1cccc2[nH]c(C(=O)N3C[C@@H]4CCC[C@@H]4[C@H]3C(=O)N[C@@H](CC3CC(C)(C)NC3=O)C(=O)CO)cc12 (relative stereo) [Compound 70_1, (1S,3aR,6aS)—N—((S)-1-((R*)-5,5-dimethyl-2-oxopyrrolidin-3-yl)-4-hydroxy-3-oxobutan-2-yl)-2-(4-methoxy-1H-indole-2-carbonyl)octahydrocyclopenta[c]pyrrole-1-carboxamide] | > 10 | 0.1 to 1 | 1 to 10 | 0.2 to 2 | ≥ 10 | > 10 | < 0.02 | < 1 | > 10 | – | – | – | – | – | – | – | – | –
3 | COc1cccc2[nH]c(C(=O)N3C[C@@H]4CCCC[C@@H]4[C@H]3C(=O)N[C@@H](C[C@@H]3CCCNC3=O)C(=O)COCc3ccccc3)cc12 (single isomer, unassigned) [Compound 59A_1] | > 10 | 0.1 to 1 | < 1 | 2 to 20 | ≥ 10 | > 10 | 0.02 to 0.2 | < 1 | > 10 | – | – | – | – | – | – | – | – | –
4 | COc1cccc2[nH]c(C(=O)N3C[C@@H]4CCC[C@@H]4[C@H]3C(=O)N[C@@H](CC3CC(C)(C)NC3=O)C(=O)C(=O)NC3CC3)cc12 (single isomer, unassigned) [Compound 95, (3S)-3-{[(1S,3aR,6aS)-2-(4-methoxy-1H-indole-2-carbonyl)-hexahydro-1H-cyclopenta[c]pyrrol-1-yl]formamido}-N-cyclopropyl-4-[(3R*)-5,5-dimethyl-2-oxopyrrolidin-3-yl]-2-oxobutanamide] | – | 0.1 to 1 | 1 to 10 | – | ≥ 10 | > 10 | 0.02 to 0.2 | 1 to 10 | > 50 | > 50 | 0.2 to 2 | – | – | – | – | – | – | –
5 | COc1cccc2[nH]c(C(=O)N3C[C@@H]4CCC[C@@H]4[C@H]3C(=O)NC(CN3CCCC3=O)C(=O)C(=O)NC3CC3)cc12 (single isomer, unassigned) [Compound 113A, (1S,3aR,6aS)—N—((S*)-4-(cyclopropylamino)-3,4-dioxo-1-(2-oxopyrrolidin-1-yl)butan-2-yl)-2-(4-methoxy-1H-indole-2-carbonyl)octahydrocyclopenta[c]pyrrole-1-carboxamide] | – | 1 to 10 | 10 to 100 | – | ≥ 10 | > 10 | 0.2 to 2 | 10 to 100 | > 50 | > 50 | – | > 10 | – | – | – | – | – | –
6 | COc1cccc2[nH]c(C(=O)N3C[C@@H]4CCC[C@@H]4[C@H]3C(=O)N[C@H](CN3CCCC3=O)C(=O)C(=O)NC3CC3)cc12 (single isomer, unassigned) [Compound 113B] | – | 1 to 10 | – | 2 to 20 | ≥ 10 | > 10 | 2 to 20 | 10 to 100 | > 50 | > 50 | – | – | > 50 | – | – | – | – | –
7 | O=C(NC1CC1)C(=O)C(CC1CC2(CC2)NC1=O)NC(=O)[C@@H]1[C@H]2CCC[C@H]2CN1C(=O)c1cc2c(Cl)cc(Cl)cc2[nH]1 (single isomer, unassigned) [Compound 116A, (1S,3aR,6aS)—N-(4-(cyclopropylamino)-3,4-dioxo-1-((R*)-5-oxo-4-azaspiro[2.4]heptan-6-yl)butan-2-yl)-2-(4,6-dichloro-1H-indole-2-carbonyl)octahydrocyclopenta[c]pyrrole-1-carboxamide] | – | – | < 1 | 0.2 to 2 | ≥ 10 | > 10 | 0.02 to 0.2 | 1 to 10 | > 10 | > 50 | – | – | – | 0.1 to 1 | – | – | – | –
8 | O=C(NCc1ccccc1)C(=O)C(C[C@@H]1CCNC1=O)NC(=O)[C@@H]1C[C@@H](c2ccccc2)CN1C(=O)c1cc2ccccc2[nH]1 (stereo partly shown) [Compound 7] | > 10 | 0.1 to 1 | 1 to 10 | 0.2 to 2 | < 0.1 | > 10 | 0.2 to 2 | 1 to 10 | > 10 | – | – | – | – | – | – | – | – | –
9 | O=C[C@H](C[C@@H]1CCCNC1=O)NC(=O)[C@@H]1[C@H]2CCC[C@H]2CN1C(=O)c1cc2ccccc2[nH]1 [Compound 15, (1S,3aR,6aS)-2-(1H-indole-2-carbonyl)-N—((S)-1-oxo-3-((S)-2-oxopiperidin-3-yl)propan-2-yl)octahydrocyclopenta[c]pyrrole-1-carboxamide] | – | 0.1 to 1 | 1 to 10 | 0.02 to 0.2 | 1 to 10 | > 10 | < 0.02 | 1 to 10 | > 100 | > 100 | – | – | – | – | – | – | – | –
10 | COc1cccc2[nH]c(C(=O)N3C[C@@H]4CCC[C@@H]4[C@H]3C(=O)NC(C[C@@H]3CCNC3=O)C(=O)C(=O)NCc3ccccc3)cc12 (stereo partly drawn) [Compound 16, 3-[[(1S,3aR,6aS)-2-(4-methoxy-1H-indole-2-carbonyl)-hexahydro-1H-cyclopenta[c]pyrrol-1-yl]formamido]-N-benzyl-2-oxo-4-[(3S)-2-oxopyrrolidin-3-yl]butanamide] | > 10 | 0.1 to 1 | 1 to 10 | 0.2 to 2 | ≥ 10 | > 10 | 0.02 to 0.2 | 1 to 10 | > 10 | – | – | – | – | – | – | – | – | –
11 | COc1cccc2[nH]c(C(=O)N3C[C@@H]4CCC[C@@H]4[C@H]3C(=O)N[C@@H](C[C@@H]3CCCNC3=O)C(=O)CO)cc12 [Compound 41, (1S,3aR,6aS)—N-[(2S)-4-hydroxy-3-oxo-1-[(3S)-2-oxopiperidin-3-yl]butan-2-yl]-2-(4-methoxy-1H-indole-2-carbonyl)-hexahydro-1H-cyclopenta[c]pyrrole-1-carboxamide] | – | < 0.1 | 1 to 10 | – | ≥ 10 | > 10 | – | 1 to 10 | > 100 | > 100 | – | > 10 | – | – | – | – | – | –
12 | CS(=O)(=O)c1cccc2[nH]c(C(=O)N3C[C@@H]4CCC[C@@H]4[C@H]3C(=O)N[C@@H](C[C@@H]3CCNC3=O)C(=O)CO)cc12 [Compound 150, (1S,3aR,6aS)—N-[(2S)-4-hydroxy-3-oxo-1-[(3S)-2-oxopyrrolidin-3-yl]butan-2-yl]-2-(4-methanesulfonyl-1H-indole-2-carbonyl)-hexahydro-1H-cyclopenta[c]pyrrole-1-carboxamide] | – | – | – | – | ≥ 10 | > 10 | – | – | > 50 | – | – | – | > 50 | – | > 50 | > 10 | 0.2 to 2 | > 50
